This note sets out measurements from patent US20080038809A1, “ISOLATED LECTIN POLYPEPTIDES CONSISTING OF TRUNCATED […] UDP-GalNAc:POLYPEPTIDE N- ACETYLGALACTOSAMINYLTRANSFERASES” (GLYCOZYM APS, priority 2002, published 2008).

“Also recorded” adds a separate entry of the source.

For test [1], the system named is MUC5AC in HT-29 MTX cells. In words: MUC5AC secretion, SDS-PAGE western blot of media with LUM5-1 (FIG. 17). To be noted: 5 mM, continuous culture, media at 14 days. It counts as cell-based, human. Here is the method: FIG. 17 illustrates SDS-PAGE Western analysis of MUC5AC secretion from HT29MTX cells using polyclonal anti-MUC5AC antibody LUM5-1. In order to evaluate GalNAcβ-benzyl as an inhibitor of mucin glycosylation and secretion we used the HT-29 metotrexate (MTX) cultured colon carcinoma cells of mucin secreting phenotype. HT-29 MTX cells have a goblet cell like phenotype with constitutive production of MUC5AC. Cells were continuously grown up to 21 days in the presence of 5 mM GalNAcα-benzyl, 5 mM GalNAcβ-benzyl, 5 mM GlcNAcα-benzyl and without inhibitor. […] In striking contrast, MUC5AC was not detected in the media from cells treated with GalNAcα-benzyl (Lane 3) or GalNAcβ-benzyl (Lane 4). Results shown are from media collected at 14 days.
In order to evaluate GalNAcβ-benzyl as an inhibitor of mucin glycosylation and secretion we used the cultured colon carcinoma cells of mucin secreting phenotypes: HT-29 metotrexate (MTX) cells selected from the HT-29 cell line by culture in the presence of MTX (kind gift from G. Huet, France). The HT-29 MTX cells were selected to yield a goblet cell like phenotype with constitutive production of MUC5AC. In order to ensure proper goblet cell differentiation the HT29MTX cell line were continuously grown up to 21 days in the presence of 5 mM GalNAcα-benzyl, 5 mM GalNAcβ-benzyl, 5 mM GlcNAcα-benzyl and without inhibitor using culture conditions as described in Hennebicq-Reig et al. (Permanent exposure of mucin-secreting HT-29 cells to benzyl-N-acetyl-alpha-D-galactosaminide induces abnormal O-glycosylation of mucins and inhibits constitutive and stimulated MUC5AC secretion. Biochem J. 1998; 334:283-95). […] Furthermore the viscosity of the media from cells with and without inhibitor was evaluated using viscosity micro-measurement.

Test [2] relates to cell surface expression of MUC1 in CHO1d1D/MUC1F-clone2 cells. In words: Cell surface expression of MUC1 by immunofluorescence. It is filed as cell-based, Chinese hamster (CHO 1d1D cells); human MUC1. To be noted: 1 mM, cells grown in GalNAc. Here is the method: FIGS. 11A-D are a series of photomicrographs (left to right from top to bottom of) anti-MUC1 antibody immunofluorescence staining of CHO 1d1D cells stably transfected with a full coding cell surface MUC1 (CHO1d1D/MUC1F-clone2). Cell grown in the presence of GalNAc were treated with the O-glycosylation inhibitor GalNAcα-benzyl or control GlcNAcα-benzyl. Cells were grown in plates and stained without permeabilization as described in Example 4.
We therefore investigated the effect of treatment with GalNAcα-benzyl of CHO1d1D/MUC1F-clone2 cells grown in the presence of GalNAc. CHO1d1D/MUC1F-clone2 cells were seeded in 6 well plates at a density of 0.2×10^6 per well and were grown for 6 hours in Hams F12 medium with serum until approximately 30% subconfluent. […] After 18 hours, the medium was replaced with fresh Optimem containing the sugars and benzyl derivatives as above and grown for 12-48 hours. Initially we analyzed surface expression of MUC1 by immunocytology. Cells were washed once in PBS-CMF (phosphate buffered saline Calcium and Magnesium free) after carefully removing the medium from the wells and subsequently fixed in 2 ml 3% paraformaldehyde at 25° C. for 20 min followed by three washes with PBS-CMF 3 times. […]

Test [3] has as its system secreted MUC1, wild type CHO/MUC1sol-cloneC4. The experiment in a line: MUC1 secretion by western blot of medium. It is filed as cell-based, Chinese hamster (CHO cells); human MUC1. The conditions noted are these: 1-2 mM. From the text: Because GalNAcα-benzyl exerts separate effects on O-glycan processing and mucin expression, the use of the novel selective inhibitor of mucin expression, GalNAcβ-benzyl, allow analysis of mucin expression and secretion in different cell line models. Examples of human cell lines (available from ATCC, USA) expressing and secreting mucins are without limitations LS174T, HT29, Colo205, CALU, MCF7, T47D, NCI-H292, and A549. Most human adenocarcinoma cell lines express and secret mucins and analysis with antibodies to detect protein expression or probes to detect mRNA can reveal the types and quantities of mucins. […] This and other cell lines can be used to treat with 2 mM GalNAcβ-benzyl. In this Example we used wild type CHO/MUC1sol-cloneC4 and western blot analysis of medium of cells treated with 1-2 mM GalNAcα-benzyl, GalNAcβ-benzyl, or the control GlcNAcα-benzyl. […] The inhibitory effect on mucin secretion can be quantified by a number of assays known to the skilled in the art including western blot, ELISA, gelfiltration, immunocapture, and other assays.
For orientation: Immunoblotting shows a protein as a band on a membrane.

Consider `CC(=O)N[C@H]1[C@@H](OCc2ccccc2)O[C@H](CO)[C@H](O)[C@@H]1O` [BzlαGalNAc, benzyl-N-acetyl-alpha-D-galactosaminide], for which the “MUC5AC in media (secretion)” value in test [1] (listed as GalNAcα-benzyl) was “diminished secretion; also recorded: not detected”.
Turning to `CC(=O)N[C@H]1[C@@H](OCc2ccccc2)O[C@H](CO)[C@H](O)[C@@H]1O` [GalNAcα-benzyl, benzyl-N-acetyl-alpha-D-galactosaminide], the “inhibition of cell surface expression of MUC1” value in test [2] is reported as “strong inhibition of cell surface expression of MUC1”. In addition, in test [3], the “inhibition of secreted MUC1” value is reported as “inhibition of secreted MUC1”.
Turning to `CC(=O)N[C@H]1[C@H](OCc2ccccc2)O[C@H](CO)[C@H](O)[C@@H]1O` [GalNAcβ-benzyl], the “MUC5AC in media (secretion)” value in test [1] is listed as “diminished secretion; also recorded: not detected”. Besides, the “inhibition of secreted MUC1” value in test [3] was “inhibition of secreted MUC1”.
On to `CC(=O)N[C@H]1[C@@H](OCc2ccccc2)O[C@H](CO)[C@@H](O)[C@@H]1O` [GlcNAcα-benzyl], for which, in test [2], the “inhibition of cell surface expression of MUC1” value is reported as “no inhibition”.
